{"source": "ChEMBL document CHEMBL1201862", "about": "“PubChem BioAssay data set” (2004)", "key": {"Insulin-degrading enzyme [1]": {"target": "T1, Insulin-degrading enzyme (Homo sapiens, UniProt P14735)", "T1 sequence (P14735 whole entry)": "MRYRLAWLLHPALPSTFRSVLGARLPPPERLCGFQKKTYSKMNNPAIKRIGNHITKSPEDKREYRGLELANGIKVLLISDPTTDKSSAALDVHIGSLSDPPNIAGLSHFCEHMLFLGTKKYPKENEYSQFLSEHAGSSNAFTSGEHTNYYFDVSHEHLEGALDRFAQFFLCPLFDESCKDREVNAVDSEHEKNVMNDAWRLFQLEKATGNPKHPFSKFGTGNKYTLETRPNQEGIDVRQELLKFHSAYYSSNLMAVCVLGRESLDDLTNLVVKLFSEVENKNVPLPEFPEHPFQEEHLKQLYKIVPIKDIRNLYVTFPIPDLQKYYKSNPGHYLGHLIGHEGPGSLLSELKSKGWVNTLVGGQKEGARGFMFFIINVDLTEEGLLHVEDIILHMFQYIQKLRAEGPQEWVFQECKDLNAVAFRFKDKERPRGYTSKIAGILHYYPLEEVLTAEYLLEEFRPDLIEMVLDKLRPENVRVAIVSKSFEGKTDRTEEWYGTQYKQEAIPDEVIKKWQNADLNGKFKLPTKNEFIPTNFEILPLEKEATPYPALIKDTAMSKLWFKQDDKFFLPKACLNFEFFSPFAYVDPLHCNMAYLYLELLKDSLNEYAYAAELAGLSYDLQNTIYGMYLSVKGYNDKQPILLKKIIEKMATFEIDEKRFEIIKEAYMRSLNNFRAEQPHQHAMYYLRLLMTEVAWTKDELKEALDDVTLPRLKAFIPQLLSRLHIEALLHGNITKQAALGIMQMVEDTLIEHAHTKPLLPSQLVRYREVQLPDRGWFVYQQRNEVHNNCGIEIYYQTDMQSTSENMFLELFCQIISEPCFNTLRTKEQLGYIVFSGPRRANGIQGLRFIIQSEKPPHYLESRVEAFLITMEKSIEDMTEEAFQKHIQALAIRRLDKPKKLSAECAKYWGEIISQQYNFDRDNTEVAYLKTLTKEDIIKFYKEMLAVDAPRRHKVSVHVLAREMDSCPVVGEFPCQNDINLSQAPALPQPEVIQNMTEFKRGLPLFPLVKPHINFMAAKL", "assay": "cellular IDE activation of Abeta substrate cleavage – fluorescence polarization, HEK cells, dose response (AID 588439)", "format": "functional, cell-based"}, "[2]": {"target": "T2, Apoptotic protease-activating factor 1 (Homo sapiens, UniProt O14727)", "T2 sequence (O14727 whole entry)": "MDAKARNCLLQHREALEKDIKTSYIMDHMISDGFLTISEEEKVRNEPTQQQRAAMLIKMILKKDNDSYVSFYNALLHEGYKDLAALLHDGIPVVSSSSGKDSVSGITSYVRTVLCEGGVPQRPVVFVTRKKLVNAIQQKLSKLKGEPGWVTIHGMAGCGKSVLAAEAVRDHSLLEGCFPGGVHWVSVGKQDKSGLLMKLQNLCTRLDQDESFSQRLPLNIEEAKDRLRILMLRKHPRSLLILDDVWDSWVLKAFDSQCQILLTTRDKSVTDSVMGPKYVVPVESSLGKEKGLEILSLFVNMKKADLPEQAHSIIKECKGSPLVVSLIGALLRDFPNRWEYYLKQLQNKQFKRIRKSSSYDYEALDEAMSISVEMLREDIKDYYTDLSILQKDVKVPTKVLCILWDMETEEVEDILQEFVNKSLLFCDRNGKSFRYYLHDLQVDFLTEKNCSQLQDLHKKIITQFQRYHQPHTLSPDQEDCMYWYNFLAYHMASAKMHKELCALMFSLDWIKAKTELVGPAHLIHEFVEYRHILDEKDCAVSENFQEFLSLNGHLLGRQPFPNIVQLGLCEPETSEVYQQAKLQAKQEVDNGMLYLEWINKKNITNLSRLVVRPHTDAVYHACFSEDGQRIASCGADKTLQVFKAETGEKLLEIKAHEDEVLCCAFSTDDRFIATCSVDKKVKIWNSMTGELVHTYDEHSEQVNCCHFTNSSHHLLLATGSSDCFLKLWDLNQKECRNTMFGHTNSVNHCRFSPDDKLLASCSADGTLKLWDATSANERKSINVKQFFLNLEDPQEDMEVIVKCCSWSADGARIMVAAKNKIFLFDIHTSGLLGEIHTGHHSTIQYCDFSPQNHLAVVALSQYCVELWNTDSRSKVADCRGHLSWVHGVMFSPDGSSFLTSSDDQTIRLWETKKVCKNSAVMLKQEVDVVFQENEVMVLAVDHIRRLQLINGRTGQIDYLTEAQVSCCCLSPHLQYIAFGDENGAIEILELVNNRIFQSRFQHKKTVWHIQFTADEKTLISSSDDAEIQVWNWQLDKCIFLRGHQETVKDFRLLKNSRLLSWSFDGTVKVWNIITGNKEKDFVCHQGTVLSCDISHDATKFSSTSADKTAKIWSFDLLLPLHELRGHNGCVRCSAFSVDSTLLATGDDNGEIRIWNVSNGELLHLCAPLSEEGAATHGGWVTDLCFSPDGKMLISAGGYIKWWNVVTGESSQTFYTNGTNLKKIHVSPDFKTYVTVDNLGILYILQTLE", "format": "functional"}, "[3]": {"assay": "microbe, parasite or virus in culture", "format": "functional", "conditions": "Mycobacterium tuberculosis"}, "Bcl-2-related protein A1": {"target": "T3, Bcl-2-related protein A1 (Mus musculus, UniProt Q07440)", "T3 sequence (Q07440 whole entry)": "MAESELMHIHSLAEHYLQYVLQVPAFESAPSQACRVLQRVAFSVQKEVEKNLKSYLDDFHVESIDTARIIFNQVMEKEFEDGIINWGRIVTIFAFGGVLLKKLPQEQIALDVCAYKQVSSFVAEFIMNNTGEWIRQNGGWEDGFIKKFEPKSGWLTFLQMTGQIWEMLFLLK", "format": "functional"}, "[4]": {"target": "T4, Ubiquitin-conjugating enzyme E2 N (Homo sapiens, UniProt P61088)", "T4 sequence (P61088 whole entry)": "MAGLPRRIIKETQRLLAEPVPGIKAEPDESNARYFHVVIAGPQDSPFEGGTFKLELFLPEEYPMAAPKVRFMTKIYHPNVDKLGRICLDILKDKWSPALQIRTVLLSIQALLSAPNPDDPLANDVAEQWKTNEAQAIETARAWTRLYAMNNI", "format": "functional"}, "HEK293 [5]": {"tested_on": "HEK293", "assay": "optical interference in Abeta FP readout, dose response, artefact control for IDE activator project, biochemical, fluorescence polarization (AID 588442)", "format": "functional, cell-based", "conditions": "Homo sapiens"}, "[6]": {"assay": "NIH-3T3 fibroblast cytotoxicity, dose response, cytotoxicity control, cell-based, fluorescence, Alamar Blue, secondary assay (AID 2327);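 note: NIH-3T3 mouse fibroblasts cultured with fluconazole at 8 µg/mL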", "format": "functional"}, "HEK293 [7]": {"tested_on": "HEK293", "assay": "membrane integrity loss in HEK cells – cell-based, fluorescence, cytotoxicity control for IDE activator project, dose response (AID 588440);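 note: cytotoxicity by LDH release measuring loss of membrane integrity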", "format": "functional", "conditions": "Homo sapiens"}, "[8]": {"assay": "fluconazole-exposed Candida albicans growth modulators – fluorescence, retest, confirmation (AID 2467)", "format": "functional, cell-based"}, "[9]": {"target": "T4, Ubiquitin-conjugating enzyme E2 N", "format": "functional", "remark": "listed apart in the source"}, "Insulin-degrading enzyme [10]": {"target": "T1, Insulin-degrading enzyme", "assay": "recombinant IDE activation, cell-free – biochemical, fluorescence polarization, counter-screen for IDE activator project, dose response (AID 588681)"}, "[11]": {"target": "T5, High affinity choline transporter 1 (Homo sapiens, UniProt Q9GZV3)", "T5 sequence (Q9GZV3 whole entry)": "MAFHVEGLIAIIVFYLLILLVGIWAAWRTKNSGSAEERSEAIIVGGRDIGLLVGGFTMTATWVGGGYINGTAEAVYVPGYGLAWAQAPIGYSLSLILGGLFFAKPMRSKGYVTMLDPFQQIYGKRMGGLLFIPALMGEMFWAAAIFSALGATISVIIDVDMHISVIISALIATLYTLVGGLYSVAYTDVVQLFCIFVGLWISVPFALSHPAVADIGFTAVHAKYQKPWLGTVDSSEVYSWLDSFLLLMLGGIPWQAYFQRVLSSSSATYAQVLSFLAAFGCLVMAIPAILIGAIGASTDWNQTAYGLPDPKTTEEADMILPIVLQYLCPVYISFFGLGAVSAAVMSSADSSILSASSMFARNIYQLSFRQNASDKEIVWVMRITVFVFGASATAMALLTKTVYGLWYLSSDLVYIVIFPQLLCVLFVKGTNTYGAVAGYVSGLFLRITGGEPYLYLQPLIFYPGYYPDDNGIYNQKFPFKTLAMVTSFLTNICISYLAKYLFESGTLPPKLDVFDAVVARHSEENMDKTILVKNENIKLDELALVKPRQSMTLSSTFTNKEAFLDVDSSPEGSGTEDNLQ", "assay": "human choline transporter blockers, potency – cell-based, 5-point CRC, membrane potential dye, dose response (AID 504840)", "format": "functional"}, "[12]": {"target": "T5, High affinity choline transporter 1", "assay": "human choline transporter radiolabel uptake blockers – cell-based, 3H-choline uptake, CHT LV-AA trafficking mutant, CRC, dose response (AID 602208)", "format": "functional"}, "[13]": {"target": "T5, High affinity choline transporter 1", "assay": "human choline transporter blockers, potency – cell-based, 10-point CRC, membrane potential dye, dose response (AID 588401);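 note: membrane potential dye fluorescence of choline-evoked depolarization via CHT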", "format": "functional"}, "[14]": {"target": "Ras and Rab interactor 1/Tyrosine-protein kinase ABL1 (Homo sapiens, UniProt P00519+Q13671)", "sequence (P00519 whole entry)": "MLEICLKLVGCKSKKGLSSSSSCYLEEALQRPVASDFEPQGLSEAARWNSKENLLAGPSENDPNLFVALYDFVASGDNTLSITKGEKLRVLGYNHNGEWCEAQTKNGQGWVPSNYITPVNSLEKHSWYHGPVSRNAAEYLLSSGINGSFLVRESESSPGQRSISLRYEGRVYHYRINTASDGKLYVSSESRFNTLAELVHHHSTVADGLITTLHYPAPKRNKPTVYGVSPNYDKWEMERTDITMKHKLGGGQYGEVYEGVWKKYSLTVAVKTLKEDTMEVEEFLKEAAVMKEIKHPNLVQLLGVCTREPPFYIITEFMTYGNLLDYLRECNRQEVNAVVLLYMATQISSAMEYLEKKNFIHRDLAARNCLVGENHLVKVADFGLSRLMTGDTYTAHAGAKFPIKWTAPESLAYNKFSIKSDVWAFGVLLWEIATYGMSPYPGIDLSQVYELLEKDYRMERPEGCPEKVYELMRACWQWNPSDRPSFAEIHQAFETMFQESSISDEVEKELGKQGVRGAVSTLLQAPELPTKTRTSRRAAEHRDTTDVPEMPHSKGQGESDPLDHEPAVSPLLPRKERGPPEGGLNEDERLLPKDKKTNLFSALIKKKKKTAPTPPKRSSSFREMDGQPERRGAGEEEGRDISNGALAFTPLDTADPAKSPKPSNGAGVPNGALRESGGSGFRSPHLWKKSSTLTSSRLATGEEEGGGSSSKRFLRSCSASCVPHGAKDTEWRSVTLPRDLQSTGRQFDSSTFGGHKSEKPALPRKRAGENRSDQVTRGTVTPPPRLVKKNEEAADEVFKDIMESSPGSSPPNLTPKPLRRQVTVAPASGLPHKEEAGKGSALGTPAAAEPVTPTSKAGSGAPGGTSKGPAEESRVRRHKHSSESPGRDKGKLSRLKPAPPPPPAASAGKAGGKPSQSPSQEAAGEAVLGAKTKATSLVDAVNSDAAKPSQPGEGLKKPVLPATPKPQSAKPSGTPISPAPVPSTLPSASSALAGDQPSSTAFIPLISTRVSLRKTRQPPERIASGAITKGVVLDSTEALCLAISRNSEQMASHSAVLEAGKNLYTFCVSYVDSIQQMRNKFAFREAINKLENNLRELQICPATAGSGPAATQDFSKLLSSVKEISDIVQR", "sequence (Q13671 whole entry)": "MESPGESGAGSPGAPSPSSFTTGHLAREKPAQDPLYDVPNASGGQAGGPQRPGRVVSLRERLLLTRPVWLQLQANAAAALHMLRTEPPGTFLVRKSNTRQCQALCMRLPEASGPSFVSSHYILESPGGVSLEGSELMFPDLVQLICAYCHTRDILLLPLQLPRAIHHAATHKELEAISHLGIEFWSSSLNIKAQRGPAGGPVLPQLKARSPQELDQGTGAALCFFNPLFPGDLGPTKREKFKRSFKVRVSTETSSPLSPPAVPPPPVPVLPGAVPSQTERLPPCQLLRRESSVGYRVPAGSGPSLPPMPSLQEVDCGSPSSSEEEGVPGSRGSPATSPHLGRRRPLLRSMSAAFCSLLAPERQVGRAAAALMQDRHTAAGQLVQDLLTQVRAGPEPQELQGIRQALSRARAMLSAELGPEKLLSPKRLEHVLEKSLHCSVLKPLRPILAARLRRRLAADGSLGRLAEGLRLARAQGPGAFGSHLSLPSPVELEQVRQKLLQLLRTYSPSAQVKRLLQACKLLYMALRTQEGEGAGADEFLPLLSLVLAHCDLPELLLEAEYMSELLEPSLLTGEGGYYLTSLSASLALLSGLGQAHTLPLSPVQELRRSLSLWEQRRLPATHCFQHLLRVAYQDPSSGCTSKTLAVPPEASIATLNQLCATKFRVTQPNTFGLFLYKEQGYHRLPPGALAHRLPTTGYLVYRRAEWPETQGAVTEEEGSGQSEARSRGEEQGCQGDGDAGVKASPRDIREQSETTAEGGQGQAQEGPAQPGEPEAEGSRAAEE", "format": "functional"}, "Interleukin-8 [15]": {"target": "T6, Interleukin-8 (Homo sapiens, UniProt P10145)", "T6 sequence (P10145 whole entry)": "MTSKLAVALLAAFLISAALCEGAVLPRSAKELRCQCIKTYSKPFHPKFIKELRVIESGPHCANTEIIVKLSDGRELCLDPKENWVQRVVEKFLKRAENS", "assay": "Dose Response confirmation of uHTS small molecule hits for cystic fibrosis induced NFkb Inhibitors in a TNFa-induced IL8 counterscreen.", "format": "functional", "conditions": "read-out: IC50_Mean"}, "Interleukin-8 [16]": {"target": "T6, Interleukin-8", "assay": "Dose Response confirmation of uHTS small molecule hits for cystic fibrosis induced NFkb Inhibitors in a PAF-induced IL8 counterscreen.", "format": "functional", "conditions": "read-out: IC50_Mean"}, "[17]": {"target": "DNA repair and recombination protein RAD54-like (Homo sapiens, UniProt Q92698)", "sequence (Q92698 whole entry)": "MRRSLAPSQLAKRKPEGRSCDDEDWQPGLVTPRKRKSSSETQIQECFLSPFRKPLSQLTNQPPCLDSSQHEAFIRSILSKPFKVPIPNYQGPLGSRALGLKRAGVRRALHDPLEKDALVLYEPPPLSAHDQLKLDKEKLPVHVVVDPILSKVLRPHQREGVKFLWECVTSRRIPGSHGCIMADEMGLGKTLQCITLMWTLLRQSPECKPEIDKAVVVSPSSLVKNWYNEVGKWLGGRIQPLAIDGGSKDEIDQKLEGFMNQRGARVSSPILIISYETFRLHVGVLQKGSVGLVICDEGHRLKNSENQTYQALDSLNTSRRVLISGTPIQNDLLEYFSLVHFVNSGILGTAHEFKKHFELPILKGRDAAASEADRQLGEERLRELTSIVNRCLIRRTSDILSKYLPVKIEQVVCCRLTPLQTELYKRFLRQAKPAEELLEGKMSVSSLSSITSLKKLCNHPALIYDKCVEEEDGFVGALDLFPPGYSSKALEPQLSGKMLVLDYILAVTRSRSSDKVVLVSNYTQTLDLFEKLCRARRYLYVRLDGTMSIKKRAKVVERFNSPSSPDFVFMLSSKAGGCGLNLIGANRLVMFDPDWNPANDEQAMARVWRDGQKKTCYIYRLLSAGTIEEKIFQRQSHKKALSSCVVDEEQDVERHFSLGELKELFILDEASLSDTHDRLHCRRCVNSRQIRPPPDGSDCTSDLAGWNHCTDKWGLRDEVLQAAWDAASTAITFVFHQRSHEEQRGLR", "assay": "RAD54 Holliday junction migration blockers – biochemical, fluorescence, cherry-picked samples, dose series, confirmation (AID 651657)", "format": "functional"}}, "note": "Calls of active or inactive are those of the source."}
{"compound": "NC1=NC[C@H](CC2CCCCC2)N1CCc1cc(C(F)(F)F)cc(C(F)(F)F)c1", "values": [{"measurement": "EC50", "setting": "Insulin-degrading enzyme [1]", "result": "9.93 µM (active)"}, {"measurement": "IC50", "setting": "[2]", "result": "74.7 µM (active)"}, {"measurement": "CC50", "setting": "[3]", "result": "26 µM (active)"}, {"measurement": "IC50", "setting": "Bcl-2-related protein A1", "result": "> 20 µM (inactive)"}, {"measurement": "IC50", "setting": "[4]", "result": "17.2 µM (active)"}, {"measurement": "EC50", "setting": "HEK293 [5]", "result": "> 54.7 µM (inactive)"}, {"measurement": "EC50", "setting": "[6]", "result": "65.2 µM (active)"}, {"measurement": "IC50", "setting": "HEK293 [7]", "result": "10.9 µM (inactive)"}, {"measurement": "EC50", "setting": "[8]", "result": "7.64 µM (active)"}, {"measurement": "IC50", "setting": "[9]", "result": "14.6 µM (active)"}, {"measurement": "EC50", "setting": "Insulin-degrading enzyme [10]", "result": "> 54.7 µM (inactive)"}]}
{"compound": "O=C(Nc1ccc(S(=O)(=O)NC2=NCCCCC2)cc1)c1ccc(Cl)cc1Cl", "values": [{"measurement": "IC50", "setting": "[11]", "result": "7.42 µM (active)"}, {"measurement": "IC50", "setting": "[12]", "result": "0.864 µM (active)"}, {"measurement": "IC50", "setting": "[13]", "result": "4.47 µM (active)"}]}
{"compound": "CC1(C)Cc2nc3sc4c(=O)[nH]cnc4c3cc2CS1", "values": [{"measurement": "IC50", "setting": "[14]", "result": "> 0.302 µM (active)"}]}
{"compound": "Brc1ccc2ncnc(NCc3cccnc3)c2c1", "values": [{"measurement": "IC50", "setting": "Interleukin-8 [15]", "result": "1.77 µM (active)"}, {"measurement": "IC50", "setting": "Interleukin-8 [16]", "result": "4.61 µM (active)"}]}
{"compound": "CN(C)CCN(C(=O)c1ccc2c(c1)OCCO2)c1nc2c(Cl)cccc2s1", "values": [{"measurement": "AC50", "setting": "[17]", "result": "55.1 µM (active)"}]}
